Source: the supplement of paper PMC10307832

Experiments:
Test in all cases: relative viability (nuclei count vs DMSO), 5 days (fraction); higher = more cells survive
[1] = compound: Cn1cc(-c2cnc3ccc4ccc(CS(=O)(=O)NCc5ccccn5)cc4c(=O)c3c2)cn1 [MK-8033] + CC(=O)c1c(C)c2cnc(Nc3ccc(N4CCNCC4)cn3)nc2n(C2CCCC2)c1=O [Palbociclib] (partner 0.5 µM)
How it was run: (§1)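 Lung cancer cell lines in 1536-well plates were dosed by pin tool the day after seeding, either with one drug alone or with a fixed anchor-drug dose plus five library-drug doses (not always all listed) in √10 steps. After 5 days, cells were fixed and their nuclei stained in one step (final 0.05% Triton X-100, 1% formaldehyde, 1 ug/ml Hoechst), then counted on 4× images. Relative viability is the nuclei count in treated wells divided by that in vehicle wells. Values are medians of duplicate plates.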

[2] = compound: CCc1c2c(nc3ccc(OC(=O)N4CCC(N5CCCCC5)CC4)cc13)-c1cc3c(c(=O)n1C2)COC(=O)[C@]3(O)CC [Irinotecan] + CC(=O)c1c(C)c2cnc(Nc3ccc(N4CCNCC4)cn3)nc2n(C2CCCC2)c1=O [Palbociclib] (partner 0.5 µM)
How it was run: as §1

[3] = compound: CC[C@@H](C)CNCC(=O)N1CCC2=C([C@@H]1COC3=CC=CC(=C3)C)C=CS2 [RU-SKI 43] + NC(=O)Nc1cc(-c2cccc(F)c2)sc1C(=O)N[C@H]1CCCNC1 [AZD7762] (partner 0.2 µM)
How it was run: as §1

[4] = compound: CCc1c2c(nc3ccc(OC(=O)N4CCC(N5CCCCC5)CC4)cc13)-c1cc3c(c(=O)n1C2)COC(=O)[C@]3(O)CC [Irinotecan] + C[C@]1(O)C[C@@H](c2nc(-c3ccc4ccc(-c5ccccc5)nc4c3)c3c(N)nccn32)C1 [Linsitinib] (partner 1 µM)
How it was run: as §1

Cell Line	relative viability ([1]; first compound 0.02 µM)	relative viability ([1]; first compound 0.2 µM)	relative viability ([1]; first compound 0.6325 µM)	relative viability ([1]; first compound 2 µM)	relative viability ([2]; first compound 0.6325 µM)	relative viability ([2]; first compound 2 µM)	relative viability ([2]; first compound 6.325 µM)	relative viability ([2]; first compound 20 µM)	relative viability ([3]; first compound 0.1 µM)	relative viability ([3]; first compound 0.3162 µM)	relative viability ([3]; first compound 1 µM)	relative viability ([3]; first compound 3.162 µM)	relative viability ([3]; first compound 10 µM)	relative viability ([4]; first compound 0.6325 µM)	relative viability ([4]; first compound 2 µM)	relative viability ([4]; first compound 6.325 µM)	relative viability ([4]; first compound 20 µM)	relative viability ([1]; first compound 0.06325 µM)
HCC-827	0.49	0.471	0.49	0.545	0.438	0.304	0.167	0.206	0.188	0.155	0.206	0.223	0.197	0.599	0.302	0.241	0.258	–
HOP-62	0.469	0.425	0.496	0.446	0.211	0.202	0.187	0.22	0.463	0.643	0.71	0.704	0.529	0.146	0.158	0.138	0.203	0.41
IA-LM	–	–	–	–	–	–	–	–	–	–	–	–	–	0.31	0.393	0.248	0.123	–
LC-2-ad	0.493	0.491	0.499	0.488	0.407	0.371	0.316	0.251	0.899	0.945	0.95	0.896	0.857	0.48	0.237	0.179	0.184	0.453
LCLC-97TM1	0.243	–	0.232	0.216	0.114	0.0978	0.113	0.108	0.373	0.184	0.255	0.303	0.239	0.118	0.189	0.168	0.169	0.221
LCLC-103H	0.514	0.47	0.295	0.491	0.452	0.412	0.446	0.5	0.832	0.804	0.788	0.821	0.763	0.91	0.352	0.362	0.411	0.51
LK-2	0.623	0.686	0.885	0.502	0.594	0.72	0.227	0.245	0.342	0.372	0.486	0.49	0.468	0.468	0.529	0.309	0.165	0.528
NCI-H520	0.209	0.184	0.254	0.205	0.224	0.242	0.214	0.146	–	–	–	–	–	0.821	0.737	0.302	0.212	0.231
NCI-H522	0.968	1	0.968	1.18	0.872	0.585	0.413	0.475	0.918	0.984	1.04	0.859	0.853	–	–	–	–	0.96
NCI-H596	–	–	–	–	–	–	–	–	1.22	1.17	1.12	1.29	1.05	1.01	1	0.556	0.537	–
NCI-H661	0.389	0.403	0.397	0.413	0.397	0.435	0.457	0.142	–	–	–	–	–	0.583	0.476	0.334	0.256	0.369
NCI-H1299	–	–	–	–	–	–	–	–	–	–	–	–	–	0.721	0.865	0.463	0.266	–
NCI-H1563	–	–	–	–	–	–	–	–	–	–	–	–	–	1.09	1.27	0.969	0.718	–
NCI-H1648	0.243	0.296	0.299	0.258	0.254	0.303	0.346	0.355	0.502	0.626	0.656	0.694	0.628	–	–	–	–	–
NCI-H1650	0.363	0.324	0.336	0.336	0.184	0.305	0.285	0.101	–	–	–	–	–	–	–	–	–	0.296
NCI-H1703	–	–	–	–	–	–	–	–	0.177	0.137	0.134	0.11	0.12	0.454	0.916	0.572	0.186	–
NCI-H2009	0.251	0.249	0.214	0.304	0.197	0.317	0.147	0.0702	–	–	–	–	–	0.876	0.493	0.262	0.221	0.23
NCI-H2023	0.39	0.236	0.214	0.174	0.503	0.385	0.248	0.077	–	–	–	–	–	0.714	0.503	0.198	0.0873	0.279
NCI-H2170	0.392	0.372	0.388	0.391	0.356	0.248	0.159	0.143	0.846	1.07	0.959	0.866	0.882	–	–	–	–	0.345
NCI-H2228	0.815	0.807	0.621	0.82	0.453	0.664	0.393	0.456	–	–	–	–	–	0.706	0.714	0.39	0.477	0.729
NCI-H2342	0.487	0.623	0.492	0.526	0.557	0.486	0.509	0.495	0.474	–	0.564	0.468	0.477	–	–	–	–	0.548
SK-LU-1	0.411	0.373	0.367	0.383	0.35	0.354	0.299	0.336	–	–	–	–	–	0.491	0.495	0.379	0.329	0.373
SK-MES-1	0.333	0.305	0.359	0.309	0.354	0.342	0.291	0.175	–	–	–	–	–	0.997	0.646	0.315	0.281	0.299
SW 900	0.518	0.493	0.519	0.495	–	0.42	0.274	0.416	0.523	0.612	0.571	0.588	0.58	–	–	–	–	0.536
SW 1573	0.373	0.345	0.409	0.389	–	0.329	0.181	0.101	–	–	–	–	–	0.627	0.534	0.2	0.178	0.392
